Earlier results, collected in patent publication US10391087B2, “Combination of oxymetazoline and ipratropium in topical nasal application for the treatment of a cough” (priority 2015, dated 2019).
Where two headings read alike, the source gives them in different places.

What was measured:
[1] = test system: ileum guinea pigs nerve tissue; details: range 20 to 70% with increasing concentrations of noradrenaline
[2] = test system: nasal secretion (rhinorrhea)
[3] = test system: cardiac response of rabbit vagal electrical stimulation; details: rabbit heart
human α1A-adrenoceptors = molecular target: T1, human α1A-adrenoceptors (Homo sapiens, UniProt P35348); details: heterologous cells expressing human α1A-adrenoceptors
T1 sequence (P35348 1-466): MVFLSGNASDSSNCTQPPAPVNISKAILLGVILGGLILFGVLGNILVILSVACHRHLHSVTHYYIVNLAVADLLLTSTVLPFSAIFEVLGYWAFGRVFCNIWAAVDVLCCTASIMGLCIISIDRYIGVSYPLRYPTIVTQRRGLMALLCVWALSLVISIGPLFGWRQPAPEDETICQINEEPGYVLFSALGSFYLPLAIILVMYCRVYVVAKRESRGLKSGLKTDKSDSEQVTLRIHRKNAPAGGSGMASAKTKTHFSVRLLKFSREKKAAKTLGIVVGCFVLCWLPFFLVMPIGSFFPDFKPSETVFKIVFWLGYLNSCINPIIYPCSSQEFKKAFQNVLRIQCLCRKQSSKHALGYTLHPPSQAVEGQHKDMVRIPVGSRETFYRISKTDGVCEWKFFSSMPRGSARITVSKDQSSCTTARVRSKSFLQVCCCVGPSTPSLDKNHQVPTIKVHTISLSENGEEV

α-1 and α-2 receptors = details: inhibited by α-1 antagonist prazosin, minimal inhibition by α-2 antagonist yohimbine

In the case of `NC[C@H](O)c1ccc(O)c(O)c1` [Noradrenaline, noradrenaline], the “reduction of acetilcoline discharge, average” value [1] is listed as 56.8%.

In the case of `CC(C)[N+]1(C)[C@@H]2CC[C@H]1C[C@@H](OC(=O)C(CO)c1ccccc1)C2` (stereo partly shown) [ipratropium], the nasal discharge ([2]; four studies, ipratropium alone, intranasally) is given as “lower nasal discharge”.

For `Cc1cc(C(C)(C)C)c(O)c(C)c1CC1=NCCN1` [oximetazoline, oxymetazoline], the “cardiac response of vagal electrical stimulation” value [3] is listed as “significantly inhibited”, the “Ca2+ responses” value (human α1A-adrenoceptors) is listed as “induce responses Ca^2+” and the blood pressure (large doses of 0.3%) is listed as “significant increase in blood pressure”. The blood pressure (standard doses of 0.01 to 0.1%) was “no” and the contraction (α-1 and α-2 receptors) was “dose dependent contraction”.

In the case of `Cc1cc(C(C)(C)C)cc(C)c1CC1=NCCN1` [xilometazoline], the rhinorrhea ([2]; 5 to 10 days after start of the infectious process, p<0.05) is given as “decreased rhinorrhea”, the “nasal secretion compared with placebo” value ([2]; Eccles 2008, xilometazoline alone, p<0.05) is given as “decreased nasal secretion” and the rhinorrhea ([2]; another study, measured on day 1 of administration) is given as “increases”.
